Assay results as given in patent US6888014B2, “Dammarane sapogenins, their use as anti-cancer agents, and a process for producing same” (PanaGin Pharmaceuticals Inc., priority 2001, dated 2005).

How the values were obtained:
[1] = system: Human non-small-cell lung carcinoma H460 cells; assay: Cancer cell inhibition in vitro, crystal violet staining, cell viability; assay type: cell-based; conditions: for V(%) cancer cell viability / Absorbency of Stained Cells (M ± SD) / viability at 40 µg/mL / viability at 25 µg/mL: H460 cells, 24 hours; for Absorbency of Stained Cells (M ± SD): 590 nm; for inhibitory effect on proliferation of H460 cells (in words): P<0.01 compared with control; for viability at 40 µg/mL / viability at 25 µg/mL: Homo sapiens, NCI-H460, read-out: V(%) cancer cell viability; for inhibitory effect on proliferation of H460 cells compared with Rh2 (in words): P<0.05 compared with that of Rh2
Experimental: Composition: 20(S)-Rh2 was provided by Shenyang Pegasus Pharmaceutical R&D Co., China, with a purity of over 98%. The molecular weight for Rh2 was 622.3. Sapogenins PAM-120, PBM-100 and PAN-30 were derived from the process stated in Example 1. The molecular weights of PAM-120, PBM-100 and PAN-30 were respectively 442.7, 474.7 and 766.6, and the purity for each of the three agents was higher than 99%. Rh2, PAM-120, PBM-100 and PAN-30 were dissolved 1 gram each separately in 100 ml absolute ethanol and stored at 4° C. the agents were diluted with RPMI-1640 medium to the desired concentrations as shown in Table 1.
Cells: Human non-small-cell lung carcinoma H460 cells were incubated in RPMI-1640 medium added with 10% fetal calf serum, 100 units penicillin/ml, and 100 μg streptomycin/ml in 5% CO2 at 37° C.
In vitro treatment: H460 cells were seeded in 96-well flat-bottomed microtest-plates at 1.2×10^3 cells per well, six wells in each group, incubated in humidified 5% CO2 at 37° C. for 24 hours with or without the agents according to the schedule as shown below.
After the 24 hours of incubation, an equal volume of 10% formalin phosphate-buffered saline containing 0.2% crystal violet was added to each well and left at room temperature for 20 minutes. The plates were then washed twice with distilled water and dried at room temperature. The absorbency of the stained cells at 590 nm was then measured using an automatic microtest-plate reader. Average absorbency of the control wells (Ac) without any treatment was calculated, average absorbency of each treatment group (ATi) was determined, and then the average cell viability of each treatment group (Vi) was derived using the following formula: [formula] B. Result

Murine sarcoma 180 cells = assay: Cancer bearing mice life prolongation test; assay type: in vivo, C57BL/6J mice; conditions: for DS50 (days of survival for 50% animals) / LPR(%) life prolongation rate: oral, lifetime or up to 120 days
Source text: Fifty (50) C57BL/6J mice weighing 18-22 g, without sex discrimination, were randomly assigned to one control group and four treatment groups, each with 10 animals. Murine sarcoma 180 cells were intraperitoneally transplanted to the mice. 20(S)-Rh2 was provided by Shenyang Pegasus Pharmaceutical R&D Co., China, with a purity of over 98%. The molecular weight for Rh2 was 622.3. The novel sapogenin PAM-120 was derived from the process described in Example 2 according to this invention. The molecular weight of PAM-120 was 442.7, and the purity for PAM-120 was higher than 99%. The drugs were prepared into a suspension form respectively. The mice were weighed daily prior to drug administration to determine the actual measurement of drug administered. Drug administration started from 24 hours post tumor inoculation. The mice in the two low-dose treatment groups were orally given the Rh2 and PAM-120 preparations using a gastric catheter at a daily dose of 10 mg/kg of Rh2 and 10 mg/kg of PAM-120 respectively for a lifetime or up to 120 days. The mice in the two high-dose treatment groups were orally given the Rh2 and PAM-120 preparations using a gastric catheter at a daily dose of 25 mg/kg of Rh2 and 25 mg/kg of PAM-120 respectively for a lifetime or up to 120 days. The mice in the control group were orally given a normal saline. For each group, the days of survival for 50% animals (DS50) and the average days of survival (ADS) were recorded. For groups containing one or more animals that could have lived longer than 120 days (the designed sacrifice day was d 120), the ADS would be so calculated that these animals were counted as if they had died on day 120, and a note would be made. The life prolongation rate (LPR) was calculated with the following formula: [formula] B. Result

[2] = system: human malignant glioma cells (U87); assay: Mouse intracranial human malignant glioma (U87) model (FIG. 5); assay type: in vivo, Nude mice; conditions: 25 mg/kg and 50 mg/kg, treatment from day 10 post implantation, p<0.01 Kaplan Meier
Experimental: FIG. 5 illustrates a graph of the therapeutic effect of PAM-120 on mouse intracranial human malignant glioma (U87) model. Nude mice were intracranially implanted with human malignant glioma cells (U87). On day 10 post tumor implantation, animals were treated with various dosages of PAM-120.

[3] = system: human malignant glioma cells (U87); assay: Mouse subcutaneous human malignant glioma (U87) model (FIG. 6); assay type: in vivo, Nude mice; conditions: 25 mg/ml; for tumor growth compared with PBS control animals (in words): treatment from day 7, tumor sizes measured day 7 and day 24
Experimental: FIG. 6 illustrates a graph of the therapeutic effect of PAM-120 on mouse subcutaneous human malignant glioma (U87) model. Nude mice were subcutaneously implanted with human malignant glioma cells (U87). On day 7 post tumor implantation, animals were treated with 25 mg/ml PAM-120 or equal dose of Rh2. Tumor sizes were measured on day 7 (before treatment) and day 24 (after the treatment).

**Q.** “3-O-[β-D-glucopyranosyl(1→2)-β-D-glucopyranosyl]-dammara-20(22E)-diene-3,12-diol [PAN-30]” was tested. Which “V(%) cancer cell viability” value ([1]; high-dose 40 μg/ml) did it give?
**A.** 41.49%

**Q.** And the “Absorbency of Stained Cells (M ± SD)” value ([1]; high-dose 40 μg/ml)?
**A.** .147 ± .032

**Q.** And the “V(%) cancer cell viability” value ([1]; low-dose 25 μg/ml)?
**A.** 70.30%

**Q.** What about the “Absorbency of Stained Cells (M ± SD)” value ([1]; low-dose 25 μg/ml) of the same compound?
**A.** .249 ± .045

**Q.** What about the “inhibitory effect on proliferation of H460 cells (in words)” value [1] of the same compound?
**A.** significant inhibitory effect

**Q.** With `C=C(CCC=C(C)C)C1CC[C@]2(C)C1[C@H](O)CC1[C@@]3(C)CC[C@H](O)C(C)(C)C3CC[C@]12C` (stereo partly drawn) [PAM-120, Dammara-20(21)-diene-3,12-diol] as the compound, how does the “Absorbency of Stained Cells (M ± SD)” value ([1]; high-dose 40 μg/ml) read?
**A.** .125 ± .031

**Q.** What about the “Absorbency of Stained Cells (M ± SD)” value ([1]; low-dose 25 μg/ml) of the same compound?
**A.** .220 ± .051

**Q.** And the viability at 40 µg/mL ([1]; high-dose 40 μg/ml)?
**A.** 35.3%

**Q.** What about the viability at 25 µg/mL ([1]; low-dose 25 μg/ml) of the same compound?
**A.** 62.1%

**Q.** And the “inhibitory effect on proliferation of H460 cells (in words)” value [1]?
**A.** significant inhibitory effect

**Q.** And the “inhibitory effect on proliferation of H460 cells compared with Rh2 (in words)” value [1]?
**A.** notable increase in inhibitory effect

**Q.** And the “mice that survived the whole 120 days, no tumors found postmortally” value (Murine sarcoma 180 cells; 25 mg/kg treatment group, 10 animals)?
**A.** Two

**Q.** And the “anti-cancer effect on murine sarcoma compared with Rh2 (in words)” value (Murine sarcoma 180 cells; P<0.01 compared with relevant Rh2 treatment dose groups)?
**A.** Better anti-cancer effect

**Q.** And the “life prolongation of mice bearing murine sarcoma compared with control (in words)” value (Murine sarcoma 180 cells; P<0.01 compared with the average days of survival in the control)?
**A.** significant increase in life prolongation

**Q.** And the “DS50 (days of survival for 50% animals)” value (Murine sarcoma 180 cells; 10 mg/kg daily)?
**A.** 38 days

**Q.** What about the “LPR(%) life prolongation rate” value (Murine sarcoma 180 cells; 10 mg/kg daily) of the same compound?
**A.** 162.6%

**Q.** And the “DS50 (days of survival for 50% animals)” value (Murine sarcoma 180 cells; 25 mg/kg daily)?
**A.** 77 days

**Q.** And the “LPR(%) life prolongation rate” value (Murine sarcoma 180 cells; 25 mg/kg daily)?
**A.** 448.3%

**Q.** And the “survival time after tumor implantation (in words)” value [2]?
**A.** significantly longer survival time

**Q.** What about the “tumor sizes compared with Rh2 treated animals (in words)” value ([3]; equal dose of Rh2, day 24, p<0.05) of the same compound?
**A.** significantly smaller

**Q.** What about the “tumor growth compared with PBS control animals (in words)” value [3] of the same compound?
**A.** significantly inhibited tumor growth

**Q.** `C=C(C)[C@H](O)C/C=C(\C)C1CC[C@]2(C)C1[C@H](O)CC1[C@@]3(C)CC[C@H](O)C(C)(C)C3[C@@H](O)C[C@]12C` (stereo partly drawn) [PBM-100] was tested. Which “Absorbency of Stained Cells (M ± SD)” value ([1]; high-dose 40 μg/ml) did it give?
**A.** .130 ± .019

**Q.** What about the “Absorbency of Stained Cells (M ± SD)” value ([1]; low-dose 25 μg/ml) of the same compound?
**A.** .223 ± .040

**Q.** What about the viability at 40 µg/mL ([1]; high-dose 40 μg/ml) of the same compound?
**A.** 36.5%

**Q.** And the viability at 25 µg/mL ([1]; low-dose 25 μg/ml)?
**A.** 62.7%

**Q.** What about the “inhibitory effect on proliferation of H460 cells (in words)” value [1] of the same compound?
**A.** significant inhibitory effect

**Q.** And the “inhibitory effect on proliferation of H460 cells compared with Rh2 (in words)” value [1]?
**A.** notable increase in inhibitory effect

**Q.** Which “V(%) cancer cell viability” value ([1]; high-dose 40 μg/ml) does the source give for `CC(C)=CCC[C@](C)(O)[C@H]1CC[C@]2(C)[C@@H]1[C@H](O)C[C@@H]1[C@@]3(C)CC[C@H](O[C@@H]4O[C@H](CO)[C@@H](O)[C@H](O)[C@H]4O)C(C)(C)[C@@H]3CC[C@]12C` [Rh2, 3-O-β-D-glucopyranosyl-20(s)-protopanaxadiol, reference compound] here?
**A.** 50.99%

**Q.** And the “Absorbency of Stained Cells (M ± SD)” value ([1]; high-dose 40 μg/ml)?
**A.** .181 ± .049

**Q.** What about the “V(%) cancer cell viability” value ([1]; low-dose 25 μg/ml) of the same compound?
**A.** 78.49%

**Q.** And the “Absorbency of Stained Cells (M ± SD)” value ([1]; low-dose 25 μg/ml)?
**A.** .278 ± .030

**Q.** And the “DS50 (days of survival for 50% animals)” value (Murine sarcoma 180 cells; 10 mg/kg daily)?
**A.** 22 days

**Q.** And the “LPR(%) life prolongation rate” value (Murine sarcoma 180 cells; 10 mg/kg daily)?
**A.** 68.0%

**Q.** And the “DS50 (days of survival for 50% animals)” value (Murine sarcoma 180 cells; 25 mg/kg daily)?
**A.** 41 days

**Q.** And the “LPR(%) life prolongation rate” value (Murine sarcoma 180 cells; 25 mg/kg daily)?
**A.** 201.4%

**Q.** What about the “tumor growth compared with PBS control animals (in words)” value [3] of the same compound?
**A.** significantly inhibited tumor growth
